According to patent EP4581943A1, “AEROSOLISABLE MATERIAL FOR USE IN AN ARTICLE” (BT DE Investments Inc., priority 2024, dated 2025):

What was measured:
[1] = Solubility of CBC in solvent systems, step-wise addition, visual inspection; assay type: physicochemical; conditions: cumulative CBC concentration after addition; solvent PG:VG 70:30
Procedure: (§1) Solvent systems were prepared and then CBG was added in a step-wise fashion and mixed until dissolved (according to visual inspection). The time taken for each addition to be solubilized was recorded.
A similar approach was taken as for example 1, but this time CBC was assessed.

[2] = assay type: physicochemical
Procedure: as §1

Structure (SMILES)	Concentration [1] [%w/w]	CBG concentration the solvent system could sustain [2] [%w/w]	time taken to solubilize approximately 5% CBG [2] [h]
CCCCCc1cc(O)c2c(c1)OC(C)(CCC=C(C)C)C=C2 (stereo not drawn) [CBC, cannabichromene]	3.0319	–	–
CCCCCc1cc(O)c(C/C=C(\C)CCC=C(C)C)c(O)c1 [CBG, cannabigerol]	–	≤ 5	> 2
